Results as given in patent US9451771B2, “Compositions and methods to attract the brown marmorated stink bug (BMSB), Halyomorpha halys” (United States of America as Represented by the Secretary of …, priority 2012, dated 2016).

System: brown marmorated stink bug (BMSB), Halyomorpha halys
Experiment: Field trials of experimental pheromone constituents, baited black pyramid traps
Format: in vivo
Details: for field attractiveness to BMSB (in words): 2011-2012 field trapping
Text: Field Bioassays. Field Trials of Experimental Pheromone Constituents: Pyramid traps based on dimensions previously used for native stink bugs (Leskey and Hogmire 2005, Hogmire and Leskey 2006) and for brown marmorated stink bugs (Leskey et al. 2012c) were used for all trials. […] Each panel was 1.22 m high, 52 cm wide at the base, and 7 cm wide at the top. Collection jars were constructed based on previously published dimensions (Hogmire and Leskey 2006) with internal cone opening of 1.6 cm with trimmed wire edging to reduce escape. In addition, a Hercon Vaportape™ II (Hercon Environmental, Emigsville, Pa.) was added as a killing agent to prevent escape from traps. In a preliminary study, addition of a killing agent increased trap captures ˜250%. Traps were deployed ˜5 meters from the border of apple and pear orchards at the Appalachian Fruit Research Station or in the border area between wood lots and row crops in Kearneysville, W. Va., Shepherdstown, W. Va., Keedysville, Md., and Beltsville, Md. Traps were spaced ˜50 meters apart. Traps were baited with compounds identified from headspace collections of male BMSB, synthesized and formulated into gray rubber septa or left unbaited.
Fourteen trials were conducted between 19 Apr. to 20 Oct. 2011 (Table 3) and four trials between 20 Mar. to 10 Oct. 2012 (Table 4). Traps were checked a minimum of twice weekly and the treatments were re-randomized at each collection.
All adults and nymphs were removed from traps and recorded. Hercon Vaportape™ strips were changed at four week intervals and lures were changed at two week intervals. Comparisons of adult and nymphal captures used the SAS GLM procedure to evaluate effect of treatment and replicate followed by Tukey's HSD if the model was significant. Appropriate transformations were used to stabilize normality if needed. The effect of sex was dropped from all models because it was never a significant factor.

[1] = AFRS 2012, Trial Three, 14 August-13 September
[2] = Beltsville 2012, Trial Three, 14 August-11 September
[3] = AFRS 2012, Trial Four, 22 September-10 October
[4] = Beltsville 2012, Trial Four, 17 September-2 October
[5] = AFRS 2012, Trial Two, 31 July-14 August
[6] = Beltsville 2012, Trial Two, 1-14 August
[7] = AFRS 2011, Trial Eight, 11 August-6 Sept.
[8] = AFRS 2011, Trial One, 19 April-10 May
[9] = Beltsville 2011, Trial Eight, 11 August-6 Sept.
[10] = Beltsville 2011, Trial One, 19 April-10 May

SMILES	field attractiveness to BMSB (in words)	Mean number BMSB adults (±SE) captured [1]	Mean number BMSB nymphs (±SE) captured [1]	Mean number BMSB adults (±SE) captured [2]	Mean number BMSB nymphs (±SE) captured [2]	Mean number BMSB adults (±SE) captured [3]	Mean number BMSB nymphs (±SE) captured [3] [per treatment]	Mean number BMSB adults (±SE) captured [4] [a per treatment]	Mean number BMSB nymphs (±SE) captured [4] [per treatment]	Mean number BMSB adults (±SE) captured [5] [bc per treatment]	Mean number BMSB nymphs (±SE) captured [5] [ab per treatment]	Mean number BMSB adults (±SE) captured [6] [ab per treatment]	Mean number BMSB nymphs (±SE) captured [6] [per treatment]	other results
C[C@H](CC[C@H]1OC1(C)C)[C@@H]1C=C[C@](C)(O)CC1 [Lure #23, (3R,6R,7R,10R)-10,11-epoxy-1-bisabolen-3-ol]	not attractive	0.75 ± 0.29e per treatment	2.50 ± 0.53c per treatment	0.90 ± 0.26b per treatment	8.38 ± 2.90bc per treatment									
C[C@H](CC[C@@H]1OC1(C)C)[C@H]1C=C[C@@](C)(O)CC1 [Lure #22, (3S,6S,7R,10S)-10,11-epoxy-1-bisabolen-3-ol]	more attractive than #23	2.73 ± 0.50d per treatment	7.30 ± 2.02bc per treatment	2.65 ± 0.44a per treatment	21.90 ± 6.49ab per treatment	1.36 ± 0.59bc per treatment	0.80 ± 0.57	5.05 ± 1.01	0.15 ± 0.11					field attractiveness to BMSB (in words) (listed as stereoisomer 1): attracted BMSB females, males, and nymphs
C[C@H](CC[C@@H]1OC1(C)C)[C@@H]1C=C[C@](C)(O)CC1 [Lure #17, (3R,6R,7R,10S)-10,11-epoxy-1-bisabolen-3-ol]										0.40 ± 0.40	7.15 ± 2.65	0.20 ± 0.12	20.30 ± 8.61	
C[C@H](CC[C@@H]1OC1(C)C)[C@H]1C=C[C@](C)(O)CC1 [Lure #18, (3R,6S,7R,10S)-10,11-epoxy-1-bisabolen-3-ol]	moderately attractive					2.48 ± 0.70abc per treatment	0.60 ± 0.37	4.15 ± 1.17	0.05 ± 0.05	0.90 ± 0.38	6.50 ± 2.08	0.35 ± 0.13	23.45 ± 9.95	
CC1=C[C@H](O)[C@@H]([C@@H](C)CC[C@@H]2OC2(C)C)CC1 [Lure #1, (3R,6R,7S,10S)-10,11-epoxy-1-bisabolen-3-ol]	inactive													Mean number BMSB adults (±SE) captured [7]: 3.08 ± 0.55b per trap per sample; Mean number BMSB nymphs (±SE) captured [7]: 14.63 ± 6.06 per trap per sample; Mean number BMSB adults (±SE) captured [8]: 0.03 ± 0.03 per trap per sample; Mean number BMSB nymphs (±SE) captured [8]: 0.00 ± 0.00 per trap per sample; Mean number BMSB adults (±SE) captured [9]: 0.55 ± 0.13ab per treatment; Mean number BMSB nymphs (±SE) captured [9]: 3.49 ± 0.67 per treatment; Mean number BMSB adults (±SE) captured [10]: 0.00 ± 0.20b per treatment; Mean number BMSB nymphs (±SE) captured [10]: 0.00 ± 0.00 per treatment
